{"source": "paper PMC8421406", "about": "“C9orf72-derived arginine-rich poly-dipeptides impede phase modifiers” (Nature Communications, 2021)", "test_system": "Kapβ2", "assay": "Solution NMR (1H-13C methyl) of labelled Kapβ2", "format": "binding", "description": "The Kapβ2 expression plasmid was transformed into BL21(DE3) cells. The protein samples with ^1H,^13C-labeled methyl groups in deuterium background were prepared as described in a previous study. The cells were grown in medium with ^15NH4Cl (2 gL^−1, CIL) and ^2H7-glucose (2 g L^−1, CIL) in 99.9% ^2H2O (Isotec). The precursors for methyl groups of Ile, Val, and Leu, α-ketobutyric acid (50 mg L^−1) and α-ketoisovaleric acid (80 mg L^−1), and [^13CH3] methionine (50 mg L^−1) were added to the culture 1 h before the addition of IPTG. Protein expression was induced by the addition of 0.5 mM IPTG at OD600 ~ 0.6, followed by ~16 h of incubation at 25 °C. […] Protein concentration was determined spectrophotometrically at 280 nm using a corresponding extinction coefficient.\nThe isotopically labeled Kapβ2 was prepared in the NMR buffer containing 20 mM ^2H-Tris pH 7.4, 150 mM NaCl, 2 mM MgCl2, 2 mM DTT, and 2% glycerol, concentrated to 20 μM. […] Perturbation of the side chain methyl resonances were each monitored using ^1H-^13C heteronuclear multiple quantum coherence. […] The perturbations of the resonances were evaluated based on chemical shift change or intensity change. […]\nIn order to investigate the interaction between Kapβ2 and PR poly-dipeptide by NMR, the NMR spectra of the isotopically labeled Kapβ2 in the absence and presence of the synthetic peptide of PR20:HA were measured. […]", "note": "“Also recorded” adds a separate entry of the source. Where no end group is shown, it is not given here. HA = HA epitope tag", "data": [{"substance": "PR20: twenty repeats of proline:arginine with an HA epitope tag at the C terminus, synthesized by SCRUM, Inc. (PRPRPRPRPRPRPRPRPRPRPRPRPRPRPRPRPRPRPRPR-{HA})", "values": [{"measurement": "Perturbation of Kapβ2 methyl resonances", "setting": "20 μM labelled Kapβ2, 20 °C, 20 mM Tris pH 7.4, 150 mM NaCl, 600/800 MHz", "value": "induced significant perturbations to several resonances of Kapβ2; also recorded: several resonances show significant perturbations induced only by PR20"}, {"measurement": "Binding site on Kapβ2 by NMR", "setting": "comparison of perturbations by PR20, M9M and FUS-ΔNLS", "value": "partially occupy the NLS-binding site of Kapβ2"}]}]}
